What was measured:
CCR5 = experiment: Flow cytometry of CCR5 receptor expression on MDM; type: cell-based, human; conditions: incubated overnight (24 h); direct immunofluorescence
Protocol: The cells were removed from the culture plate and then resuspended in 100 μl of phosphate-buffered saline (PBS). After incubation with 20 μl of either anti-CCR5-FITC or anti-CXCR4-FITC or anti-CD4-FITC or anti-CD14-FITC for 45 min at 4° C., the cells were washed twice with PBS and fixed with 1% paraformaldehyde in PBS. Fluorescein-conjugated control antibodies were isotype-matched IgG. Fluorescence was analyzed on an EPICS-Elite flow cytometer (Beckman-Coulter Electronics, Hialeah, Fla.).

HIV Bal strain = experiment: HIV RT activity in culture supernatants of HIV Bal strain-infected MDM; type: cell-based, HIV-1; conditions: for HIV RT activity increased: MDM, HIV Bal
Protocol: The cells were also incubated with SP and/or anti-SP antibody. In this case, SP was incubated with (1:1000 dilution in 10% FCS DMEM) or without anti-SP antibody at room temperature for 10 min and then the mixture was added to the cell cultures for 2 h. When the cells were treated with the combination of CP-96,345 and SP, or CP-96,345, SP and anti-SP antibody, CP-96,345 was incubated with the cell culture for 10 min and then SP was added to the MDM or CP-96,345, SP and anti-SP (1:1000 in 10% FCS DMEM) were incubated for 10 min at room temperature and the mixture was incubated with the MDM for 2 h before infection with HIV. Untreated MDM served as controls. The cells were treated prior to, during, and throughout the infection.
HIV Infection: After 2 h incubation with or without the reagents described above, the cells were infected with equal amounts of cell-free HIV based on p24 antigen content (20 ng/10^6 cells) overnight, and then washed to remove unbound virus. Fresh media containing SP and/or CP-96,345 or anti-SP antibody were added to the MDM as described above. The culture media and the reagents were replaced twice weekly. The culture supernatants were harvested for HIV reverse transcriptase (RT) activity determinations. After HIV infection, the MDM were incubated for 8 to 12 days. At the termination of the experiments, cellular RNA was extracted for assessment of HIV gag gene expression using RT-PCR or real time RT-PCR assays.
The HIV RT activity assay was carried out based on the technique of Willey et al. (30) with modification (22).

HIV LTR promoter = experiment: HIV LTR-driven CAT activity assay in U38 cells; type: cell-based
Description: ACH-2 and U38 cell lines (25, 26) were obtained from the NIH AIDS Reagent Program. DNA extracted from ACH-2 cells was used as a positive standard for HIV DNA PCR as previously reported (27). The U38 cell line contains stably integrated, silent copies of the HIV LTR (long terminal repeat) promoter linked to a CAT (chloramphenicol acetyltransferase) gene and was used to study the effect of SP and/or CP-96,345 and R-113281 on the activation of HIV LTR promoter.
Chloramphenicol acetyltransferase (CAT) activity assay: U38 cells (2×10^6 cells) were incubated with different concentrations of SP and/or CP-96,345 or R-113281 for 48 h. Untreated U38 cells were used as a background control. Cellular proteins were extracted using 1X Reporter Lysis Bufffer (Promega Corp., Madison, Wis.). The lysates were incubated with a mixture containing 0.15 μCi of ^14C-labeled chloramphenicol (DuPont Inc., Boston, Mass.) and 200 μg/ml of n-Butyryl CoA (Promega Corp., Madison, Wis.) in a total volume of 125 μl at 37° C. for 3 h. The acetylated forms of chloramphenicol were extracted with xylene (Aldrich Chemical Company, Milwaukee, Wis.). CAT activity of each sample was quantified using a liquid-scintillation counter (Packard Instrument Company, Downers Grove, Ill.). The results were expressed as the ratio of CAT activity (CPM) of the SP and/or CP-96,345-treated or R-113281-treated U38 to that of the background control.

Compound | CCR5 receptor expression on MDM (percentage positive cells) (CCR5) | viral replication as determined by HIV RT activity (HIV Bal strain; 10^−7M, 8 days after infection, vs HIV infection control) | HIV LTR-driven CAT activity (HIV LTR promoter; SP 10^−10 to 10^−6M, 48 h, P<0.05 vs untreated control cells) | HIV LTR-driven CAT activity (HIV LTR promoter; SP (10^−5M), 48 hours) | HIV RT activity increased (HIV Bal strain; SP 10^−6M, 12 days after infection) | HIV RT activity increased (HIV Bal strain; SP 10^−8M, 12 days after infection) | HIV RT activity increased (HIV Bal strain; SP 10^−10M, 12 days after infection) | HIV replication in MDM (HIV RT activity and HIV gag mRNA levels) (HIV Bal strain; SP alone 10^−6M, 12 days after infection)
COc1ccccc1CN[C@H]1C2CCN(CC2)[C@H]1C(c1ccccc1)c1ccccc1 [CP-96,344] | did not affect | did not have the effect | – | – | – | – | – | –
Substance P [SP] | – | – | significantly increased | significantly increases | 58% | 40% | 14% | enhanced HIV replication

Source: US6676950B2, “Neurokinin receptor antagonists and methods of use thereof for inhibiting HIV infection” (The Children's Hospital of Philadelphia, priority 2001, dated 2004)
